Assay results published in patent US20070078096A1, “Buffered drug formulations for transdermal electrotransport delivery” (priority 1997, published 2007).
≈ marks a conversion by molar mass, not a printed value. Read-outs that look alike come from different tables or passages of the source. Residues, ends and D or L forms follow the SMILES beside them.

How the values were obtained:
[1] = In vivo iontophoresis, pH control of anodic and cathodic buffer gels (Example 2); set-up: species or system hairless guinea pigs; Ionic strength (approx.): unit not given here
Experimental: In vivo iontophoresis experiments were performed using custom built electrotransport systems. […] This formulation was separated from the anode electrode by a Sybron ion exchange membrane. […] The cathode-compartment comprised a skin-contacting gel containing the aqueous solution of the buffering agent at the indicated concentration and 3% HEC. This formulation was separated from the cathode electrode by a Nafion ion exchange membrane. […] The electrodes were connected to a DC power source which supplied a constant level of electric current of 0.1 mA/cm^2. Experiments were performed in vivo in hairless guinea pigs. Three animals were used for each condition studied. The electrotransport systems were applied to and removed from the flank of the animals. The two reservoirs were generally spaced about 5 cm apart. The application site was wiped with water prior to system application. pH of the gels was measured prior to application and after removal of the systems using a HORIBA compact pH […]).

[2] = Solubility of dipeptides at their pI; format: physicochemical
Source text: (§1) Table 1 lists conductivities and solubilities of selected dipeptides useful in the present invention, at their pI.

[3] = pH stability of formulations with TMAB or SMS during electrotransport (Example 4); format: in vivo, hairless guinea pigs
Source text: The effect of the zwitterionic buffer Gly-His and His-Glu on pH stability of formulations containing small molecular weight drug-like compounds during electrotransport to hairless guinea pigs was studied. Trimethylammonium bromide (TMAB) was used as the cationic model drug and sodium methanesulfate (SMS) was used as the model anionic drug.
The electrodes were connected to a DC power source which supplied a constant level of electric current of 0.100 mA/cm^2. The anodic electrode assembly comprised a skin-contacting gel containing the aqueous solution of His-Glu 66 mM or Gly-His 45 mM and TMAB at 50 mM and 3% HEC. This formulation was separated from the silver anode by a Sybron ion exchange membrane. A gel containing 0.15 M sodium chloride (which acted as a chloride source) was placed between the silver anode and the ion exchange membrane. The cathodic electrode assembly comprised a skin-contacting gel containing the aqueous solution of His-Glu 66 mM or Gly-His 45 mM and SMS 50 mM and 3% HEC. The cathodic gel reservoir was separated from the silver chloride cathode by a Nafion ion exchange membrane. A gel containing 0.1 5M sodium chloride was placed between the cathode and the ion exchange membrane. The ionic strength of the skin-contacting gels was 60 mM.
Experiments were performed in vivo in hairless guinea pigs. Two animals were used for each condition studied. The electrotransport systems were applied to and removed from the backs of the animals. The two reservoirs were generally spaced about 5 cm apart. The application site was wiped with 70% isopropyl alcohol wipes prior to system application. Donor reservoir gel pH was measured prior to application and after removal of the systems using a HORIBA compact pH meter (Cardy).

[4] = Conductivity of dipeptides at their pI; format: physicochemical
Source text: as §1

[5] = pKa, pI and charge distribution of buffers
Source text: At the pI, three species coexist.
In an electric field these negative species move in the opposite direction of their positive associated counterions.
Choice of the dipeptide buffer will be on a case-by-case basis depending on the drug compound and the desired level of pH control and conductivity of the formulation.

## N[C@@H](Cc1cnc[nH]1)C(=O)N[C@@H](CCC(=O)O)C(=O)O [His-Glu] (H-His-Glu-OH)
[1]; Anode, listed as His-Glu 100 mM
  pH after 24 h electrotransport: 5.5
[1]; Anode, listed as His-Glu 250 mM
  pH after 24 h electrotransport: 5.4
[1]; Cathode, listed as His-Glu 100 mM
  pH after 24 h electrotransport: 5.4
[1]; Cathode, listed as His-Glu 250 mM
  pH after 24 h electrotransport: 5.2
[1]; Table 3, anodic buffer gel, listed as His-Glu 100 mM
  Ionic strength (approx.): ~0.015
[1]; Table 3, anodic buffer gel, listed as His-Glu 250 mM
  Ionic strength (approx.): ~0.037
[1]; Table 4, cathodic buffer gel, listed as His-Glu 100 mM
  Ionic strength (approx.): ~0.015
[1]; Table 4, cathodic buffer gel, listed as His-Glu 250 mM
  Ionic strength (approx.): ~0.037
[1]; Table 5, Anode, listed as His-Glu 100 mM
  Initial pH: 5.1
[1]; Table 5, Anode, listed as His-Glu 250 mM
  Initial pH: 5.2
[1]; Table 5, Cathode
  Initial pH: 5.3
[1]; anodic gel, 5 h, 0.1 mA/cm^2
  Anodic pH after 5 h electrotransport: 5.2
[1]; anodic gel, prior to application, listed as His-Glu 100 mM
  Initial pH: 5.1
[1]; anodic gel, prior to application, listed as His-Glu 250 mM
  Initial pH: 5.2
[1]; cathodic gel, 5 h, 0.1 mA/cm^2
  Cathodic pH after 5 h electrotransport: 5.0
[1]; cathodic gel, prior to application
  Initial pH: 5.3
[1]; electrotransport experiments in animals, at their pI, for several hours
  pH control of electrotransport formulations: capable of assuring pH control
[1]; for at least 5 hours, dipeptides at their pI
  pH control of a cathodic electrotransport formulation: capable of assuring pH control
[1]; for several hours, dipeptides at their pI
  pH control of an anodic electrotransport formulation: capable of assuring pH control
[1]; for up to 24 hours, at their pI
  pH control of anodic and cathodic electrotransport formulations: capable of assuring pH control
[2]
  Solubility: 400 mM (≈ 114 mg/mL)
[3]; Anode, drug TMAB 50 mM
  Final pH: 5.3
  Initial pH: 5.1
[3]; Cathode, drug SMS 50 mM
  Final pH: 6.0
  Initial pH: 5.2
[3]; all experimental conditions tested (Table 7)
  pH control with TMAB or SMS: good pH control
[4]
  Conductivity at 10^−2 Molar: 40 μS/cm
[5]
  pI: 5.2
[5]; Table 1
  pI: 5.20
[5]; Table 2
  pI: 5.20
[5]; at pI
  species presenting a net charge (salt form) at the pI: about 15%
[5]; fraction of dipeptide carrying a net charge in aqueous solution at pH equal to pI
  % salt: 15%
